According to US20110086035A1, “IMMUNOTHERAPEUTIC METHODS AND MOLECULES” (priority 2008, published 2011):
Read-outs that look alike come from different tables or passages of the source.

B1: recombinant Asp f1-H136L protein: FLAG-tagged recombinant A. fumigatus Asp f1 ribotoxin with point mutation His136Leu, without leader sequence (protein, UniProt P67875 28-176, looked up, variant H136L)
Ribonuclease mitogillin: ATWTCINQQLNPKTNKWEDKRLLYSQAKAESNSHHAPLSDGKTGSSYPHWFTNGYDGNGKLIKGRTPIKFGKADCDRPPKHSQNGMGKDDHYLLEFPTFPDGHDYKFDSKKPKEDPGPARVIYTYPNKVFCGIVALQRGNQGDLRLCSH
modifications: FLAG tag

How the values were obtained:
A. fumigatus conidia = assay: Confrontation assay: killing of A. fumigatus conidia by monocytes pre-incubated with T cell supernatant; assay type: cell-based, Aspergillus fumigatus; details: monocytes pre-incubated with supernatant of T cell clones activated with FHT peptide-pulsed APC; 3 hours; FIG. 5
Experimental: (§1) Dendritic cells (DC) were generated from monocytes by addition of 500 U/ml GM-CSF (PromoCell, Heidelberg, Germany) and 700 U/ml IL-4 (R&D systems, Wiesbaden-Nordenstadt, Germany) to the culture medium. Immature dendritic cells were incubated for 24 hours with either live A. fumigatus or C. albicans conidia or fungus killed by treatment with ethanol 0, 4, 8 or 12 hours after germination and subsequently co-incubated, with Aspergillus peptide-specific T cell clones for further 24 hours. Dendritic cells used for presentation of protein or peptide antigen were induced to mature by addition of 25 ng/ml TNF-α, 5 ng/ml IL-1β, 10 ng/ml IL-6 (all R&D systems, Wiesbaden-Nordenstadt, Germany) and 1 μg/ml PGE2 (Pharmacia, Ratingen, Germany) prior to antigen-pulsing and co-incubation with antigen-specific T cells. In one experiment the antigen-presenting dendritic cells fed with live Aspergillus conidia were incubated with either 25 μg/ml control antibody or MHC class II blocking antibody (No 555556, BD Biosciences, Heidelberg, Germany) for 1 hour prior to addition of the T cells. Antibody also remained present during the 24 hours co-incubation of T cells with antigen-presenting DC. […]
Killing of A. fumigatus conidia by monocytes was quantified using confrontation assays. […] Each experimental setting was determined in quadruple. […] Colonies were quantified after incubation at 37° C. over night. […]

T cells specific for FHT = assay: DRB1*0401/FHT multimer staining of FHT-expanded cell lines; assay type: cell-based, human; details: PBMC of 3 donors (two DRB1*0401, one DRB1*0408) expanded 14 or 21 days; FHT bound to multimer of DRB1*0401; FIG. 7
Text: FIG. 7. Cell lines expanded using the FHT peptide contain T cells that bind specifically to the FHT peptide in the context of DRB1*0401. PBMC from 3 different donors were expanded with the FHT peptide for 14 or 21 days (IVS—In vitro stimulation). Two of the donors were DRB1*0401 positive and one was DRB1*0408 positive.
PBMC from 3 different donors were expanded with the FHT peptide for 14 or 21 days (IVS—In vitro stimulation). Two of the donors were DRB1*0401 positive and one was DRB1*0408 positive.

[1] = test system: FHT-specific CD4+ T cell clones; assay: Restimulation of FHT-specific CD4+ T cell clones with antigen-loaded dendritic cells, IFN-γ ELISA; assay type: cell-based, human
Experimental: For generation of antigen-specific T cell clones PBMC were stimulated repeatedly with 1 μg/ml FHT peptide once weekly for 4 weeks. Subsequently T cell clones were generated by limiting dilution in 96-well plates and expanded using the rapid expansion protocol as described by Beck et al^14. A CMVpp65-specific CD4^+ T cell clone used in control experiments was generated accordingly by limiting dilution of T cells stimulated with pp65 peptide antigen (kindly provided by Jan Diekmann).
as §1, with “cells.” for “cells. In one experiment the antigen-presenting dendritic cells fed with live Aspergillus conidia were incubated with either 25 μg/ml control antibody or MHC class II blocking antibody (No 555556, BD Biosciences, Heidelberg, Germany) for 1 hour prior to addition of the T cells. Antibody also remained present during the 24 hours co-incubation of T cells with antigen-presenting DC.”

T cell clones = assay: IFNg ELISA of T cell clones stimulated with FHT peptide or FHT loaded HLA restricted LCL; assay type: cell-based, human; details: in all but one of the clones; FIG. 8
Experimental: FIG. 8. […] Using limiting dilution, individual T cell clones were generated. Following expansion, the clones were either left un-stimulated, stimulated with FHT peptide or stimulated with HLA restricted FHT loaded LCL. IFNg production was then measured in a standard ELISA.
(§2) Using limiting dilution, individual T cell clones were generated. Following expansion, the clones were either left un-stimulated, stimulated with FHT peptide or stimulated with HLA restricted FHT loaded LCL. IFNg production was then measured in a standard ELISA.

[2] = test system: Asp f16-specific T cell lines of HLA-DRB1*04-positive donors; assay: Restimulation of Asp f16-specific T cell lines with peptide-pulsed autologous monocytes, IFN-γ ELISA; assay type: cell-based, human; details: T cell lines of 3 HLA-DRB1*04-positive donors; monocytes pulsed with 1 μg/ml peptide; 24 h; FIG. 2B
Experimental: (§3) Antigen-specific T cell lines were generated by incubation of 1×10^7 whole PBMC per well in 6-well cell culture plates with 5 μg/ml recombinant protein or 1 μg/ml peptide antigen for 7 days. Lymphocyte cultures were supplemented with 5 U/ml IL-2 (Proleukin, Chiron, Ratingen, Germany) every other day and culture medium replenished as needed.
(§4) Autologous monocytes were isolated from whole PBMC by allowing cells to adhere to tissue culture dishes for 2 hours and subsequent extensive washing to remove non-adherent cells. For presentation of protein antigen, monocytes were cultured overnight in the presence of 5 μg/ml recombinant protein and harvested by mechanical abrasion the next day. For presentation of peptide antigen, monocytes were incubated overnight without antigen and mature cells harvested and pulsed with 1 μg/ml peptide antigen for 1 hour. Transduced autologous B cells were used as antigen-presenting cells (APC) after repeated culture on gamma-irradiated human CD40L-transfected feeder cells. […]
(§5) In order to define a common MHC class II epitope of the Asp f16 protein, lymphocyte donors were screened for the expression of the most abundant MHC class II allele HLA-DRB1*04 and Asp f16-specific T cell lines generated as described. […] All T cell cultures were then exposed to both peptide and recombinant protein for 24 hours and IFN-γ production quantified.

HLA-DRB1*04 = assay: Binding to HLA-DRB1*04; parameters: species or system human
Text: Whether or not a peptide binds to HLA-DRB1*04 may be determined using any method known in the art. A suitable method is shown in Example 1, with particular reference to FIG. 2B. One method is to introduce the peptide into PBMCs taken from an HLA-DRB1*04 human and determine whether an activating or proliferative response is obtained which is indicative of binding. Binding to HLA-DRB1*04 may also be assessed using the methods described in FIGS. 7 and 8.
as §2

[3] = test system: PBMC from HLA-DRB1*04-positive donors; assay: Criss-cross restimulation of T cell lines generated with FHT peptide or recombinant Asp f16 protein, IFN-γ; assay type: cell-based, human; details: lines generated for one week with peptide or protein, exposed to both for 24 hours; FIG. 2C
Experimental: as §3, §4, §5

PBMC from healthy donors = assay: Restimulation of T cell lines generated with recombinant protein, IFN-γ ELISA; assay type: cell-based, human; details: PBMC of 4 healthy donors; significant = at least 50 pg/ml and/or more than 5-fold increase over unstimulated; FIG. 1A/1B
Experimental: Blood was obtained from HLA-DRB1*-typed healthy donors after informed consent. Peripheral blood mononuclear cells (PBMC) were isolated via centrifugation in Biocoll Separating Solution (Biochrom, Berlin, Germany) and either used directly after preparation or cryopreserved for later use. Cells were cultured in RPMI 1640 with L-Glutamine (Invitrogen, Karlsruhe, Germany), supplemented with 10% heat-inactivated, pooled human serum and 100 U/ml Penicillin-Streptomycin (Invitrogen, Karlsruhe, Germany).
as §3
Autologous monocytes were isolated from whole PBMC by allowing cells to adhere to tissue culture dishes for 2 hours and subsequent extensive washing to remove non-adherent cells. […]
PBMC from 4 different healthy donors, were stimulated for 7 days with purified recombinant Asp f1-H136L or Asp f16 protein. The generated T cell lines were then re-exposed for 24 hours to both proteins and the amount of secreted IFN-γ quantified in the supernatant by IFN-γ ELISA. […]

phoenix GALV = assay type: cell-based, human; details: point mutation His136Leu versus Asp f1
Text: The gene encoding the A. fumigatus Asp f16 protein (NCBI accession number AY169706) was cloned into the eukaryotic expression vector pcDNA3.1-TOPO (Invitrogen, Karlsruhe, Germany) with N- and C-terminal FLAG®-Tag (Sigma-Aldrich, Muenchen, Germany). The gene was amplified from cDNA kindly provided by Utz Reichard (University of Goettingen, Germany). The gene encoding Asp f1 protein (NCBI accession number M83781) was cloned accordingly, omitting the leader sequence (cDNA kindly provided by Prof. Dr. Stefan Stevanović, University of Tuebingen, Germany).
pcDNA3.1-aspf16-FLAG and pcDNA3.1-aspf1-H136L-FLAG expression vector was introduced into the transgenic human cell line phoenix GALV^20 via calcium phosphate transfection. Parental as well as transfected producer cells were cultivated in DMEM medium (Invitrogen, Karlsruhe, Germany) supplemented with 10% heat-inactivated fetal calf serum (FCS, Biochrom, Berlin, Germany) and 100 U/ml Penicillin-Streptomycin (Invitrogen, Karlsruhe, Germany). 24 hours after transfection transgene expression from the CMV promoter of the expression vector was enhanced by addition of 1 mM sodium butyrate (Sigma-Aldrich, Muenchen, Germany) to the culture medium^21.
Recombinant Asp f1 and Asp f16 proteins were produced in a eukaryotic expression system and purified by standard methods via introduced FLAG-Tags. […]

Molecule	fungal survival after phagocytosis by monocytes (A. fumigatus conidia)	detection of FHT specific T cells by multimer staining (T cells specific for FHT)	IFN-γ production of FHT-specific CD4+ T cell clones in response to DC ([1]; autologous DC pulsed with synthetic peptide, 24 h, FIG. 3A)	IFNg production with FHT loaded HLA restricted LCL compared to peptide alone (T cell clones)	IFN-γ production in response to peptide [2]	binding to HLA-DRB1*04 (HLA-DRB1*04)	binding to HLA-DRB1*04 (HLA-DRB1*04; listed as FHT)	specific cytokine (IFN-γ) production after restimulation with peptide and recombinant protein [3]	cross-reactivity of Asp f16-specific CD4+ TH1 T cell clones to pulsed APC ([1]; APC pulsed with purified protein)	IFN-γ after one week of stimulation and 24 h re-exposure to recombinant protein (PBMC from healthy donors)	cytotoxicity in the producing cell line (phoenix GALV)
FHTYTIDWTKDAVTW [FHT peptide]	significantly reduce fungal survival	can be detected by DRB1*0401/FHT multimer staining	high amounts of IFN-γ	greatly increased specific cytokine production	abundant production of IFN-γ	has been shown to bind to HLA-DRB1*04	specifically binds HLADRB1*04	specific cytokine production could be detected			
B1									not cross-reactive	only one of 4 donors responded robustly	nearly abolished cytotoxicity
